Data reported in patent US5646156A, “Inhibition of eosinophil activation through A3 adenosine receptor antagonism” (Merck & Co., Inc., priority 1994, dated 1997).

Legend:
[1] = target: T1, human A3 adenosine receptor (Homo sapiens, UniProt P0DMS8); details: potencies disclosed by Salvatore et al.; cited from earlier work
T1 construct: clone HS-21a contained the complete open reading frame corresponding to the human homolog of the rat A3 adenosine receptor; expressed in transfected cells; host or cells: CHO cells, stably transfected (pCMV5-A3; pSVL and pREP vectors are also described)
T1 sequence (P0DMS8 1-318): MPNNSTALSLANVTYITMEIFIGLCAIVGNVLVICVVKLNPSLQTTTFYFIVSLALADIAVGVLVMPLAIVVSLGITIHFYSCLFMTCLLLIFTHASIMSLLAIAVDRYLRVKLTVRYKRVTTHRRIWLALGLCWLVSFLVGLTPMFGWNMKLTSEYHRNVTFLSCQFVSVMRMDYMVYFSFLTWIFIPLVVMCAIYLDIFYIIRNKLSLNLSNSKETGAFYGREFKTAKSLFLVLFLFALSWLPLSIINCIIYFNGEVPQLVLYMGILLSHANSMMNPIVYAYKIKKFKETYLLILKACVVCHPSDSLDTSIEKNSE

[2] = system: human adenosine receptors (all subtypes); details: cited from earlier work
[3] = target: T1, human A3 adenosine receptor; assay: Competition binding vs 125I-ABA, membranes of CHO cells stably expressing HS-21a (human A3 adenosine receptor); details: competition with 125I-ABA, CHO membranes, human A3
Experimental: Pellets were resuspended in 5 mM Hepes, pH 7.4/5 mM MgCl2 /0.1 mM benzamidine/0.1 mM PMSF at a protein concentration of 1-2 mg/mL and were incubated with adenosine deaminase (Boehringer Mannheim), 2 U/mL at 37° C. for 20 minutes. […] The assay was terminated by rapid filtration and three washes with ice-cold binding buffer on a Skatron harvester equipped with a receptor binding filtermat (Skatron Instruments, INC). […] Nonspecific binding was measured in the presence of 1 μM I-ABA. […] Binding data were analyzed and competition curves were constructed by use of the nonlinear regression curve fitting program Graph PAD InPlot, Version 3.0 (Graph Pad Software, San Diego).

[4] = target: T1, human A3 adenosine receptor; details: antagonist potency in cAMP assay; disclosed by Salvatore et al.; cited from earlier work

CCCn1c(=O)c2[nH]c(-c3ccc(C=CC(=O)O)cc3)nc2n(CCC)c1=O [BW-A1433, 1,3-dipropyl-8-(4-acrylate)phenylxanthine]
BINDING pKi [1]: 7.26 | blockade of human adenosine receptor subtypes [2]: blocked | Ki [3]: 55 nM | cAMP pKi [4]: 7.0
